From patent US20230144023A1, “USE OF BUTYLPHTHALIDE AND DERIVATIVE THEREOF” (CSPC NBP PHARMACEUTICAL CO., LTD, priority 2020, published 2023)
Like-named read-outs stand apart in the source and are kept apart here.

Assays:
[1] = tested on: bortezomib chemotherapy-induced peripheral neuropathy; experiment: Bortezomib chemotherapy-induced peripheral neuropathy in rats (Example 6); format: in vivo, SD (Sprague Dawley) rats; details: compared with the model group
Method: (The modeling and administration time are shown in FIG. 11. The animal grouping, the administration method, and the doses are detailed in Table 14). […] (2) Thermal pain threshold: measurements were performed on days 0, 7, 14, and 21. Method: IITC Life Science Electronic Von Frey Anesthesio meter was used and the intensity of the light source was adjusted to obtain a thermal pain threshold baseline of about 3-6 s. […] The rats were placed in a plastic compartment on a glass plate, to make the planta centers of the rats be exposed to the light source. […] (3) Mechanical Stimulus Pain Threshold: Measurements were Performed on Days −1, 6, 13, and 20. Method: the rats were placed in a plastic compartment on a wire mesh, left to stand still for 15 min, stimulated using a stimulation probe with a diameter of 0.4 mm of the IITC Life Science Electronic Von Frey Anesthesio meter at the planta centers of the rats by gradually increasing the force until reflexive withdrawal of the rats.

A549 = experiment: In vitro tumor cell proliferation, MTT (Example 5); format: cell-based; details: Homo sapiens, 30 μM NBP alone, 72 h, read-out: Inhibition rate
Method: (§1) This experiment includes a monotherapy group of ab-PTX, a combined therapy group (ab-PTX/NBP), and an NBP group. Different drug concentration gradients were set for each group.
(§2) ab-PTX/NBP group: the final concentration of NBP was 30 μM, and the concentration gradient of ab-PTX was the same as that of the monotherapy group.
(§3) Monotherapy group of NBP: NBP was 2× serially diluted from an initial concentration of 480 μM to 8 concentrations: 480, 240, 120, 60, 30, 15, 7.5, and 3.75 μM, respectively.
(§4) The action time of the drug was 72 h.
(§5) 24 h after adherence, 100 μL of the culture solution containing different concentration gradients of ab-PTX was added to each well of the monotherapy group of ab-PTX; 100 μL of the culture solution containing different concentration gradients of ab-PTX and 30 μM NBP was added to each well of the combined therapy group of ab-PTX/NBP; 100 μL of the culture solution containing different concentration gradients of NBP was added to each well of the monotherapy group of NBP; 3 repeated wells were provided for each concentration of each drug, and the blank wells (only culture medium was present) and the normal wells (drug concentration was 0) were provided.
(§6) The experiment was repeated three times, and the IC50 value was expressed as the mean±SD of the results of the 3 experiments.

JIMT-1 = experiment: In vitro tumor cell proliferation, MTT (Example 5); format: cell-based; details: Homo sapiens, 30 μM NBP alone, 72 h, read-out: Inhibition rate
Method: as §1, §2, §3, §4, §5, §6

A375 = experiment: In vitro tumor cell proliferation, MTT (Example 5); format: cell-based; details: Homo sapiens, A-375, 30 μM NBP alone, 72 h, read-out: Inhibition rate
Method: as §1, §2, §3, §4, §5, §6

SK-OV-3 = experiment: In vitro tumor cell proliferation, MTT (Example 5); format: cell-based; details: Homo sapiens, 30 μM NBP alone, 72 h, read-out: Inhibition rate
Method: as §1, §2, §3, §4, §5, §6

HT29 [2] = experiment: In vitro tumor cell proliferation, MTT (Example 5); format: cell-based; details: Homo sapiens, HT-29, 30 μM NBP alone, 72 h, read-out: Inhibition rate
Method: as §1, §2, §3, §4, §5, §6

MDA-MB-231 = experiment: In vitro tumor cell proliferation, MTT (Example 5); format: cell-based; details: Homo sapiens, 30 μM NBP alone, 72 h, read-out: Inhibition rate
Method: as §1, §2, §3, §4, §5, §6

Jeko-1 = experiment: In vitro tumor cell proliferation, MTT (Example 7); details: Homo sapiens, JeKo-1, 72 h
Method: (§7) This experiment includes a monotherapy group of Bortezomib, a combined therapy group (Bortezomib/NBP), and a monotherapy group of NBP. Different drug concentration gradients were set for each group.
(§8) Monotherapy group of Bortezomib: (1) MM.1S, Jeko-1, and HT29 cells: Bortezomib was 1.5× serially diluted from an initial concentration of 20 nM to 8 concentrations: 20, 13.33, 8.89, 5.93, 3.95, 2.63, 1.76, and 1.17 nM, respectively; (2) A549 cells: Bortezomib was 2×serially diluted from an initial concentration of 200 nM to 8 concentrations: 200, 100, 50, 25, 12.5, 6.25, 3.13, and 1.56 nM, respectively; and (3) DU145 cells: Bortezomib was 2× serially diluted from an initial concentration of 100 nM to 8 concentrations: 100, 50, 25, 12.5, 6.25, 3.13, 1.56, and 0.78 nM, respectively.
(§9) A certain number of conventionally cultured cells in logarithmic growth phase were inoculated in a 96-well plate with 100 μL per well. […] For adherent cells HT29, A549, and DU145, the above drugs were added 24 h after adherence. 3 replicate wells were set for each concentration of each drug, and blank wells (only culture medium was present, and no tumor cells were inoculated) and normal wells (a culture medium inoculated with tumor cells, drug concentration was 0) were set. The drugs functioned for 72 h, then MTT working solution (5 mg/mL) was added at 20 μL per well; after functioning at 37° C. for 4 h, the supernatant was removed, 150 μL of DMSO (analytically pure) was added; the mixture was fully mixed using a microplate oscillator, the plate was wiped clean, and the optical density (OD) at 550 nm was measured using a microplate reader.
(§10) The cell growth inhibition rate was computed using the following equation:
(§11) Inhibition rate (%)=(OD valuenormal well−OD valueadministration well)/(OD valuenormal well−OD valueblank well)×100%
(§12) Based on the inhibition rate of each concentration, the median inhibitory concentration IC50 of the drug was computed using SPSS19.0.

DU145 = experiment: In vitro tumor cell proliferation, MTT (Example 7); details: Homo sapiens, DU-145, 72 h
Method: as §7, §8, §9, §10, §11, §12

[3] = tested on: MDA-MB-231, JIMT-1, SK-OV-3, HT29, A549, A375; experiment: In vitro proliferation of 6 tumor cell strains, summary statements (Example 5); format: cell-based, Human; details: NBP alone; 6 cell strains
Method: as §1, §2, §3, §4, §5, §6

[4] = PK of total paclitaxel in plasma, JIMT-1 tumor-bearing mice (Example 4); format: in vivo, Nu/Nu mice; details: NBP 6, 20, 60 mg/kg bid gavage with ab-PTX 15 mg/kg i.v.
Method: Administration period: 28 days. Administration volume: 10 mL/kg.
The administration period was 28 days. The administration volume was 10 mL/kg.

HT29 [5] = experiment: In vitro tumor cell proliferation, MTT (Example 7); details: Homo sapiens, HT-29, 72 h
Method: as §7, §8, §9, §10, §11, §12

[6] = tested on: paclitaxel (albumin bound) chemotherapy-induced peripheral neuropathy; experiment: Paclitaxel (albumin bound) chemotherapy-induced peripheral neuropathy in rats, butylphthalide intragastric administration (Example 2); format: in vivo, SD (Sprague Dawley) rats; details: compared with the model group
Method: The model group was given vegetable oil at the same frequency and with the same administration method as NBP. The normal group was given normal saline at the same frequency and with the same administration method as ab-PTX, and was given vegetable oil at the same frequency and with the same administration method as NBP. […] (2) Thermal pain threshold: measurements were performed on days −1, 7, and 14. Method: IITC Life Science Electronic Von Frey Anesthesio meter was used and the intensity of the light source was adjusted to obtain a baseline of thermal pain threshold of about 3-6 s. […] The rats were placed in a plastic compartment on a glass plate, to make the planta centers of the rats be exposed to the light source. […] (3) Mechanical stimulus pain threshold: measurements were performed on days 0, 6, and 13. Method: the rats were placed in a plastic compartment on a wire mesh, left to stand still for 15 min, stimulated using a stimulation probe with a diameter of 0.4 mm of the IITC Life Science Electronic Von Frey Anesthesio meter at the planta centers of the rats by gradually increasing the force until reflexive withdrawal of the rats.

[7] = read-out: Inhibition rate, First dose
[8] = read-out: Inhibition rate, Mean ± SD
[9] = read-out: Inhibition rate, Second dose
[10] = read-out: Inhibition rate, Third dose

In the case of `CCCCC1OC(=O)c2ccccc21` (centres unmarked) [NBP, 3-n-butylphthalide], the “mechanical stimulus pain threshold (decrease in model rats)” value ([1]; day 20, NBP 10 and 30 mg/kg bid) is reported as “significantly reversed”, the “body weights of the rats” value ([1]; day 21, NBP 3, 10 and 30 mg/kg bid gavage) is reported as “not obviously changed” and the “thermal pain threshold (decrease in model rats)” value ([1]; day 21, NBP 3, 10 and 30 mg/kg bid) is reported as “significantly reversed”. For the same molecule, the inhibition at 30 µM (A549) was 5.12 ± 7.36%, the inhibition at 30 µM (JIMT-1) was 7.39 ± 13.2% and the inhibition at 30 µM (A375) was 10.9 ± 0.57%. For the same molecule, the inhibition at 30 µM (SK-OV-3) was 12.4 ± 7.41%, the inhibition at 30 µM (HT29 [2]) was 10.1 ± 7.94% and the inhibition at 30 µM (MDA-MB-231) was 3.43 ± 3.95%. The inhibition at 30 µM (Jeko-1; [7]) was -7.67%, the inhibition at 30 µM (Jeko-1; [8]) was -11.5 ± 6.32% and the inhibition at 30 µM (Jeko-1; [9]) was -18.8%. The inhibition at 30 µM (Jeko-1; [10]) was -8.11%, the inhibition at 30 µM (DU145; [7]) was -2.22% and the inhibition at 30 µM (DU145; [8]) was 4.03 ± 5.88%. For the same molecule, the inhibition at 30 µM (DU145; [9]) was 9.44%, the inhibition at 30 µM (DU145; [10]) was 4.87% and the “inhibitory effect on in vitro proliferation” value [3] was “did not have obvious inhibitory effect”. For the same molecule, the “influence of combined butylphthalide on the pharmacokinetic behavior of paclitaxel in the plasma” value [4] was “did not affect”, the inhibition at 30 µM (HT29 [5]; [7]) was 9.98% and the inhibition at 30 µM (HT29 [5]; [8]) was 10.7 ± 2.79%. The inhibition at 30 µM (HT29 [5]; [9]) was 8.27%, the inhibition at 30 µM (HT29 [5]; [10]) was 13.7% and the “body weights of the rats” value ([6]; NBP 3, 10 and 30 mg/kg bid, duloxetine hydrochloride 15 mg/kg qd, intragastric, throughout administration) was “not obviously changed”. The mechanical pain threshold ([6]; day 6, NBP 30 mg/kg bid p.o., P<0.05) was “significantly decreased”, the thermal pain threshold ([6]; day 7, NBP 30 mg/kg bid p.o., P<0.05) was “significantly decreased” and the mechanical pain threshold ([6]; day 13, NBP 3 mg/kg bid p.o.) was “had a decreasing trend, but did not have statistical difference”. The mechanical pain threshold ([6]; day 13, NBP 10 and 30 mg/kg bid, duloxetine hydrochloride 15 mg/kg qd, P<0.05) was “significantly decreased” and the thermal pain threshold ([6]; day 14, NBP 3, 10 and 30 mg/kg bid, duloxetine hydrochloride 15 mg/kg qd, P<0.05) was “significantly decreased”.
